Among the test systems are NCI-H226 lung; SF-295 CNS; NCI-H23 lung; UACC-257 melanoma; NCI-H460 lung; SF-539 CNS; HOP-92 NSCLC; HCT-116 colon; UACC-62 melanoma.
Common to all, as to experiment: NCI anticancer screen, dose series, 48 h

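Interpolation was linear, between the two tested concentrations surrounding the appropriate level; five concentrations were tested over 48 hours in 96-well plates. Definition used: TGI = concentration required for complete inhibition of growth.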

For the compound `COc1cccc(/C=N/n2c(Cc3ccc(Cl)cc3)n[nH]c2=O)c1`, the TGI in the test on NCI-H226 lung was > 72.3 µM; in the test with SF-295 CNS, 35.4 µM; in the test on NCI-H23 lung it was > 70.3 µM; in the test with UACC-257 melanoma it was > 100 µM; with NCI-H460 lung, > 100 µM; with SF-539 CNS, 32.6 µM. In addition, the results for the TGI in the test on HOP-92 NSCLC, with HCT-116 colon and in the test on UACC-62 melanoma were 52.1 µM, > 100 µM and > 82.9 µM, respectively.

`CC(C)=CCC/C(C)=C/CC/C(C)=C/CSc1ccc(Cl)cc1C(=O)O`: the TGI in the test with NCI-H226 lung was 36.8 µM; in the test on SF-295 CNS, 31.4 µM; in the test on NCI-H23 lung, 34.9 µM; in the test on UACC-257 melanoma, 82.2 µM; in the test with NCI-H460 lung, 32.7 µM; in the test with SF-539 CNS, 36.4 µM. Also, the figures for the TGI with HOP-92 NSCLC, in the test on HCT-116 colon and in the test with UACC-62 melanoma were 45.2 µM, 31.6 µM and 34.7 µM, respectively.

On to `CC(C)(CN1CCCCC1)C(=O)/C=C/c1c(Cl)cccc1Cl`, for which the TGI turned out to be 9.88 µM with NCI-H226 lung; 7.05 µM in the test with SF-295 CNS; 2.84 µM with NCI-H23 lung; 6.36 µM in the test on UACC-257 melanoma; 3.86 µM with NCI-H460 lung; 6.71 µM in the test with SF-539 CNS. In addition, the TGI with HOP-92 NSCLC amounted to 2.34 µM; with HCT-116 colon, 2.02 µM; in the test with UACC-62 melanoma it was 2.61 µM.

As to `Cc1nc2sccn2c1C(=O)OCCOCCOCCOCCOC(=O)c1c(C)nc2sccn12`, the TGI with NCI-H226 lung, in the test with SF-295 CNS, in the test with NCI-H23 lung, with UACC-257 melanoma, in the test on NCI-H460 lung and in the test with SF-539 CNS was > 100 µM throughout. In addition, the TGI in the test on HOP-92 NSCLC, with HCT-116 colon and with UACC-62 melanoma was > 100 µM in each case.

Take `Cc1nc(N)nc(N)c1N1CCN(Cc2ccccc2)CC1`: the TGI in the test on NCI-H226 lung, in the test on SF-295 CNS, in the test on NCI-H23 lung, in the test on UACC-257 melanoma, in the test on NCI-H460 lung and in the test on SF-539 CNS was > 100 µM each time. Further, the TGI in the test on HOP-92 NSCLC, with HCT-116 colon and with UACC-62 melanoma was > 100 µM throughout.

For `CCOC(=O)/C=C(/C(=O)OCC)n1ccc(=O)[nH]c1=O`, the TGI in the test on NCI-H226 lung was 14.5 µM; with SF-295 CNS it was 34.7 µM; in the test with NCI-H23 lung, 30.4 µM; in the test with UACC-257 melanoma it was 25.2 µM; with NCI-H460 lung, 30.5 µM; with SF-539 CNS it was 34.8 µM. The TGI amounted to 4.32 µM in the test with HOP-92 NSCLC, 7.14 µM in the test with HCT-116 colon and 25.7 µM in the test on UACC-62 melanoma.

For the compound `C/C(NC(=O)c1ccccc1)=C(/C(=O)c1ccccc1)[C@@H]1OC(C)(C)O[C@@H]1[C@H]1COC(C)(C)O1`, the TGI with NCI-H226 lung was > 100 µM; in the test on SF-295 CNS it was > 100 µM; in the test with NCI-H23 lung, 93.9 µM; in the test on UACC-257 melanoma it was > 100 µM; in the test with NCI-H460 lung it was 65.5 µM; with SF-539 CNS, > 100 µM. Further, the TGI with HOP-92 NSCLC was 86.6 µM; in the test with HCT-116 colon, 52.5 µM; in the test on UACC-62 melanoma, > 100 µM.

On to `C=C1[C@H](OCC(C)C)[C@@H](OC(=O)C(C)CC)[C@@H](O)C(C)(C)/C=C/[C@H](C)C(=O)[C@@]2(O)C[C@H](C)[C@H](O)[C@@H]2[C@H]1OC(=O)C(C)CC` (stereo partly specified), for which the TGI with NCI-H226 lung was > 20 µM; in the test on SF-295 CNS it was > 16.9 µM; with NCI-H23 lung it was > 15.8 µM; with UACC-257 melanoma, > 14.1 µM; in the test with NCI-H460 lung, 8.18 µM; with SF-539 CNS it was > 14.9 µM. Also, the TGI in the test on HOP-92 NSCLC, in the test with HCT-116 colon and in the test with UACC-62 melanoma was > 20 µM in each case.

Regarding `COC1=CCC2=C(CCN(C(=O)C3CCC3)C2Cc2ccc(OC)c(O)c2)C1` (stereo unspecified), the TGI in the test with NCI-H226 lung is > 100 µM; with SF-295 CNS, 45.4 µM; in the test on NCI-H23 lung, 28.7 µM; in the test with UACC-257 melanoma, > 100 µM; with NCI-H460 lung, 31.1 µM; in the test on SF-539 CNS, > 100 µM. The TGI in the test with HOP-92 NSCLC is 79.4 µM; with HCT-116 colon, 48.6 µM; with UACC-62 melanoma, > 100 µM.

As to `CN(/N=C/c1ccc(Cl)c(Cl)c1)C1=NCCN1`, the TGI with NCI-H226 lung was 72 µM; in the test with SF-295 CNS it was 69 µM; with NCI-H23 lung, > 100 µM; in the test with UACC-257 melanoma it was 45.2 µM; in the test on NCI-H460 lung, > 100 µM; with SF-539 CNS, 40.4 µM. The figures for the TGI in the test on HOP-92 NSCLC, with HCT-116 colon and in the test with UACC-62 melanoma were 62.6 µM, 39.1 µM and 35.4 µM, respectively.

For `CCOC(=O)C1=CN(C(=O)c2ccccc2)CCC1Cc1ccccc1` (stereo unspecified), the TGI in the test on NCI-H226 lung was > 100 µM; with SF-295 CNS it was > 100 µM; in the test with NCI-H23 lung it was > 100 µM; with UACC-257 melanoma, 34.3 µM; in the test on NCI-H460 lung it was 44.9 µM; with SF-539 CNS, 63.6 µM. Also, the TGI amounted to 54.5 µM with HOP-92 NSCLC, 84.4 µM in the test with HCT-116 colon and 31.4 µM in the test on UACC-62 melanoma.

Regarding `Nc1ccc(-c2nc3cc(F)ccc3s2)cc1`, the TGI in the test with NCI-H226 lung is > 100 µM; in the test with SF-295 CNS, > 85.7 µM; with NCI-H23 lung it was > 46.5 µM; with UACC-257 melanoma, > 100 µM; in the test with NCI-H460 lung, > 100 µM; in the test with SF-539 CNS, > 100 µM. Also, the TGI is > 93.1 µM in the test on HOP-92 NSCLC, > 100 µM in the test with HCT-116 colon and > 100 µM in the test on UACC-62 melanoma.

As for `Cc1[nH]c(=O)[nH]c(=O)c1C(=O)N(CCO)Cc1ccccc1`, the TGI was 43.9 µM with NCI-H226 lung; > 100 µM with SF-295 CNS; > 100 µM in the test with NCI-H23 lung; > 100 µM in the test with UACC-257 melanoma; > 100 µM in the test with NCI-H460 lung; > 100 µM in the test on SF-539 CNS. Besides, the TGI in the test on HOP-92 NSCLC, in the test with HCT-116 colon and in the test on UACC-62 melanoma was > 100 µM in each case.

With `COc1cc([C@@H]2c3cc4c(cc3[C@@H](Nc3ccc(NC(=O)c5cc(NC(=O)c6cc([N+](=O)[O-])cn6C)cn5C)cc3)[C@H]3COC(=O)[C@H]23)OCO4)cc(OC)c1O`, the TGI is > 44.4 µM in the test with NCI-H226 lung; > 100 µM with SF-295 CNS; > 48.7 µM in the test on NCI-H23 lung; > 82.4 µM in the test with UACC-257 melanoma; 13.2 µM in the test on NCI-H460 lung; > 100 µM in the test on SF-539 CNS. The TGI with HOP-92 NSCLC was > 39.2 µM; in the test on HCT-116 colon, 33.3 µM; in the test with UACC-62 melanoma, > 100 µM.
